Results as given in ChEMBL document CHEMBL1275444, “Fitness trade-offs in blaTEM evolution” (2008).
In brackets after ≈: the same amount, converted by molar mass.

Key:
[1] = tested on: Escherichia coli; assay: Antibacterial activity against Escherichia coli TP1 harboring pBR322 carrying TEM-1 assessed as inhibition of bacterial growth at 4096 ug/ml after 18 hrs; type: functional; details: TP1, 18 h
[2] = tested on: Escherichia coli; assay: Antibacterial activity against Escherichia coli TP1 harboring pBR322 carrying TEM-12 assessed as bacterial density at 512 ug/ml after 18 hrs; type: functional
[3] = tested on: Escherichia coli; assay: Antibacterial activity against Escherichia coli TP1 harboring pBR322 carrying TEM-10 assessed as bacterial density at 512 ug/ml after 18 hrs; type: functional
[4] = tested on: Escherichia coli; assay: Antibacterial activity against Escherichia coli TP1 harboring pBR322 carrying TEM-1 assessed as bacterial density at 512 ug/ml after 18 hrs; type: functional
[5] = tested on: Escherichia coli; assay: Antibacterial activity against Escherichia coli TP1 harboring pBR322 carrying TEM-10 assessed as bacterial density at 1024 ug/ml after 18 hrs; type: functional
[6] = tested on: Escherichia coli; assay: Antibacterial activity against Escherichia coli TP1 harboring pBR322 carrying TEM-1 assessed as bacterial density at 2048 ug/ml after 18 hrs relative to control; type: functional
[7] = tested on: Escherichia coli; assay: Antibacterial activity against Escherichia coli TP1 harboring pBR322 carrying TEM-12 by broth microdilution method; type: functional
[8] = tested on: Escherichia coli; assay: Antibacterial activity against Escherichia coli TP1 harboring pBR322 carrying TEM-12 assessed as inhibition of bacterial growth at 4096 ug/ml after 18 hrs; type: functional; details: TP1, 18 h
[9] = tested on: Escherichia coli; assay: Antibacterial activity against Escherichia coli TP1 harboring pBR322 carrying TEM-10 assessed as bacterial density at 2048 ug/ml after 18 hrs relative to control; type: functional
[10] = tested on: Escherichia coli; assay: Antibacterial activity against Escherichia coli TP1 harboring pBR322 carrying TEM-1 by broth microdilution method; type: functional
[11] = tested on: Escherichia coli; assay: Antibacterial activity against Escherichia coli TP1 harboring pBR322 carrying TEM-12 assessed as bacterial density at 2048 ug/ml after 18 hrs relative to control; type: functional
[12] = tested on: Escherichia coli; assay: Antibacterial activity against Escherichia coli TP1 by broth microdilution method
[13] = tested on: Escherichia coli; assay: Antibacterial activity against Escherichia coli TP1 harboring pBR322 carrying TEM-10 by broth microdilution method; type: functional
[14] = tested on: Escherichia coli; assay: Antibacterial activity against Escherichia coli TP1 harboring pBR322 carrying TEM-12 assessed as bacterial density at 1024 ug/ml after 18 hrs; type: functional
[15] = tested on: Escherichia coli; assay: Antibacterial activity against Escherichia coli TP1 harboring pBR322 carrying TEM-10 assessed as inhibition of bacterial growth at 4096 ug/ml after 18 hrs; type: functional; details: TP1, 18 h
[16] = tested on: Escherichia coli; assay: Antibacterial activity against Escherichia coli TP1 harboring pBR322 carrying TEM-1 assessed as bacterial density at 1024 ug/ml after 18 hrs; type: functional
[17] = tested on: Escherichia coli; assay: Antibacterial activity against Escherichia coli TP1 harboring pBR322 carrying TEM-10 assessed as bacterial density up to 64 ug/ml after 18 hrs; type: functional
[18] = tested on: Escherichia coli; assay: Antibacterial activity against Escherichia coli TP1 harboring pBR322 carrying TEM-10 assessed as inhibition of bacterial growth at 256 ug/ml after 18 hrs; type: functional; details: TP1, 18 h
[19] = tested on: Escherichia coli; assay: Antibacterial activity against Escherichia coli TP1 harboring pBR322 carrying TEM-12 assessed as inhibition of bacterial growth at 256 ug/ml after 18 hrs; type: functional; details: TP1, 18 h
[20] = tested on: Escherichia coli; assay: Antibacterial activity against Escherichia coli TP1 harboring pBR322 carrying TEM-1 assessed as inhibition of bacterial growth at 2 ug/ml after 18 hrs; type: functional; details: TP1, 18 h
[21] = tested on: Escherichia coli; assay: Antibacterial activity against Escherichia coli TP1 harboring pBR322 carrying TEM-12 assessed as inhibition of bacterial growth at 64 ug/ml after 18 hrs; type: functional; details: TP1, 18 h

CC1(C)S[C@@H]2[C@H](NC(=O)[C@H](N)c3ccccc3)C(=O)N2[C@H]1C(=O)O [AMPICILLIN]
inhibition at 4096 µg/mL [1]: 25% | Activity [2]: 5% | Activity [3]: 5% | Activity [4]: 5% | Activity [5]: 5% | Activity [6]: 95% | MIC [7]: 16400 µg/mL (≈ 46900 µM) | inhibition at 4096 µg/mL [8]: 36% | Activity [9]: 42% | MIC [10]: 16400 µg/mL (≈ 46900 µM) | Activity [11]: 72% | MIC [12]: 32 µg/mL (≈ 91.6 µM) | MIC [13]: 16400 µg/mL (≈ 46900 µM) | Activity [14]: 5% | inhibition at 4096 µg/mL [15]: 78% | Activity [16]: 5%

CC(C)(O/N=C(\C(=O)N[C@@H]1C(=O)N2C(C(=O)[O-])=C(C[n+]3ccccc3)CS[C@H]12)c1csc(N)n1)C(=O)O [CEFTAZIDIME]
Activity [17]: 100% | MIC [7]: 512 µg/mL (≈ 937 µM) | MIC [10]: 8 µg/mL (≈ 14.6 µM) | inhibition at 256 µg/mL [18]: 17% | inhibition at 256 µg/mL [19]: 88% | inhibition at 2 µg/mL [20]: 99% | MIC [12]: 1 µg/mL (≈ 1.83 µM) | MIC [13]: > 1020 µg/mL | inhibition at 64 µg/mL [21]: 64%
